The values below are quoted from earlier work in patent EP1964566A1, “PREPARATION WITH IMPROVED BIOABSORBABILITY OF SAPROPTERIN HYDROCHLORIDE” (Asubio Pharma Co., Ltd., priority 2005, dated 2007).

The conditions of the series: in vivo, po.

As to sapropterin hydrochloride, the bioavailability is on record as 1-2%.
